This is an account of results in PubChem BioAssay AID743404 (Broad Institute, 2014).

Activity calls are given as the source filed them. How the calls were made is not given here. Bounds are passed on as bounds.

Tested on in one experiment: not listed separately
Put plainly: replicating M. tuberculosis growth inhibition, dose response, imaging, dry powder (AID 743404). To be noted: Mycobacterium tuberculosis replicating growth, CFU imaging; at 50 µM (top of the series).
As for `O=C(Nc1nc2ccccc2n1-c1ccccc1)c1ccccc1`, the activity change, negative = inhibition was -7.02% (inactive).

The experiment is the same for the next values; noted with them: Mycobacterium tuberculosis replicating growth, CFU imaging; at 100 µM (top of the series).
Regarding `Cn1c(NC(=O)c2ccc(C#N)cc2)nc2ccccc21`, the activity change, negative = inhibition was -1.94% (inactive).

As to `Cn1c(NC(=O)c2ccc(-c3nccs3)cc2)nc2ccccc21`, the activity change, negative = inhibition was 1.95% (inactive).

In the case of `O=C(Nc1nc2ccccc2s1)c1ccccc1`, the activity change, negative = inhibition is -9.11% (inactive).

On to `Cn1c(NC(=O)c2ccccc2)nc2cccnc21`, for which the activity change, negative = inhibition is -6.96% (inactive).

Regarding `Cn1c(NC(=O)c2ccccc2)nc2ccc(F)cc21`, the activity change, negative = inhibition was -13% (inactive).

Consider `Cn1c(NC(=O)c2nc3ccccc3s2)nc2ccccc21`, for which the activity change, negative = inhibition is 3.65% (inactive).

Regarding `COc1ccccc1C(=O)Nc1nc2ccccc2n1C`, the activity change, negative = inhibition is -18% (inactive).

In the case of `Cn1c(NC(=O)c2ccc(F)c(F)c2)nc2ccccc21`, the activity change, negative = inhibition is 1.94% (inactive).

For `Cn1c(NC(=O)c2ccncc2)nc2ccccc21`, the activity change, negative = inhibition was -9.25% (inactive).

On to `COc1ccc2c(c1)nc(NC(=O)c1ccccc1)n2C`, for which the activity change, negative = inhibition was -10.1% (inactive).

Turning to `Cn1c(NS(=O)(=O)c2ccccc2)nc2ccccc21`, the activity change, negative = inhibition was -4.4% (inactive).

Consider `Cn1c(NC(=O)c2ccccc2)nc2ccc3ncccc3c21`, for which the activity change, negative = inhibition was -10.6% (inactive).

As to `Cn1c(NC(=O)c2ccno2)nc2ccccc21`, the activity change, negative = inhibition is -5.54% (inactive).

On to `Cn1c(NC(=O)c2ccc(Cl)c(Cl)c2)nc2ccccc21`, for which the activity change, negative = inhibition is 0.098% (inactive).

`CC(C)Oc1ccc(C(=O)Nc2nc3ccccc3n2C)cc1`: the activity change, negative = inhibition was -8.59% (inactive).

Take `COc1ccc(C(=O)Nc2nc3ccccc3n2C)cc1OC`: the activity change, negative = inhibition is -3.35% (inactive).

As for `Cn1c(NC(=O)c2ccc(OC(F)(F)F)cc2)nc2ccccc21`, the activity change, negative = inhibition is 1.97% (inactive).

On to `Cn1c(NC(=O)c2ccc(-c3ncco3)cc2)nc2ccccc21`, for which the activity change, negative = inhibition is -1.55% (inactive).

As for `Cn1c(NC(=O)c2ccccc2)nc2cc(C(F)(F)F)ccc21`, the activity change, negative = inhibition is -1.86% (inactive).

As for `Cn1c(NC(=O)c2ccccc2)nc2cc(F)ccc21`, the activity change, negative = inhibition is -9.27% (inactive).

`COCCn1c(NC(=O)c2ccccc2)nc2ccccc21`: the activity change, negative = inhibition was -13.8% (inactive).

For the compound `Cn1c(NC(=O)c2cccc(C(F)(F)F)c2)nc2ccccc21`, the activity change, negative = inhibition was -12.4% (inactive).

Turning to `Cn1c(NC(=O)c2ccc(-n3ccnn3)cc2)nc2ccccc21`, the activity change, negative = inhibition was 0.752% (inactive).

Regarding `Cn1c(NC(=O)c2ccc(N3CCOC3=O)cc2)nc2ccccc21`, the activity change, negative = inhibition is 3.62% (inactive).

For the compound `CN(C(=O)c1ccccc1)c1nc2ccccc2n1C`, the activity change, negative = inhibition was -7.26% (inactive).

In the case of `Cn1c(NC(=O)c2ccc3ncoc3c2)nc2ccccc21`, the activity change, negative = inhibition is 1.4% (inactive).

`COc1cccc2c1nc(NC(=O)c1ccccc1)n2C`: the activity change, negative = inhibition is -17.3% (inactive).

For the compound `Cn1c(NC(=O)c2ccccc2)nc2cc(Cl)ccc21`, the activity change, negative = inhibition was -6.62% (inactive).

Turning to `Cn1c(NC(=O)Cc2ccccc2)nc2ccccc21`, the activity change, negative = inhibition is -15.4% (inactive).

As for `Cn1c(NC(=O)c2ccccc2Cl)nc2ccccc21`, the activity change, negative = inhibition was -2.89% (inactive).

For `Cn1c(NC(=O)c2ccc(Oc3ccccc3)cc2)nc2ccccc21`, the activity change, negative = inhibition is -18.8% (inactive).

On to `Cn1c(NC(=O)c2cccs2)nc2ccccc21`, for which the activity change, negative = inhibition was -15.5% (inactive).

For `Cn1c(C(=O)Nc2ccccc2)nc2ccccc21`, the activity change, negative = inhibition was -11.4% (inactive).

In the case of `Cn1c(NC(=O)c2ccccc2)nc2ccc(C#N)cc21`, the activity change, negative = inhibition is 4.9% (inactive).

As to `O=C(Nc1nc2ccccc2n1Cc1ccccc1)c1ccccc1`, the activity change, negative = inhibition was 3.29% (inactive).

For the compound `O=C(Nc1nc2ccccc2n1CCN1CCOCC1)c1ccccc1`, the activity change, negative = inhibition is -5.41% (inactive).

As for `COc1ccc(C(=O)Nc2nc3ccccc3n2C)cc1`, the activity change, negative = inhibition is -7.64% (inactive).

Turning to `Cc1cc(C(=O)Nc2nc3ccccc3n2C)on1`, the activity change, negative = inhibition was -7.86% (inactive).

With `O=C(Nc1nc2ccccc2n1C1CC1)c1ccccc1`, the activity change, negative = inhibition is -6.92% (inactive).

On to `Cn1c(NC(=O)c2ccccc2C(F)(F)F)nc2ccccc21`, for which the activity change, negative = inhibition was -8.14% (inactive).

Take `Cn1c(NC(=O)c2ccc(N3CCOCC3)cc2)nc2ccccc21`: the activity change, negative = inhibition was -9.12% (inactive).

In the case of `Cn1c(NC(=O)c2ccccc2)nc2cccc(Cl)c21`, the activity change, negative = inhibition is -2% (inactive).

For `O=C(Nc1nc2ccccc2[nH]1)c1ccccc1`, the activity change, negative = inhibition was 1.93% (inactive).

As for `CC(=O)Nc1nc2ccccc2n1C`, the activity change, negative = inhibition is -2.24% (inactive).

On to `Cc1ccc2c(c1)nc(NC(=O)c1ccccc1)n2C`, for which the activity change, negative = inhibition is -14.6% (inactive).

Take `COc1cccc(C(=O)Nc2nc3ccccc3n2C)c1`: the activity change, negative = inhibition was -11.3% (inactive).

In the case of `CC(C)n1c(NC(=O)c2ccccc2)nc2ccccc21`, the activity change, negative = inhibition is -7.84% (inactive).

In the case of `Cn1c(NC(=O)Nc2ccccc2)nc2ccccc21`, the activity change, negative = inhibition was -16.1% (inactive).

Another experiment deals with Mycobacterium tuberculosis replicating growth, CFU imaging. Described as above.
Conditions: not given
Consider `CCN(CC)CCn1c(NC(=O)c2ccccc2)nc2ccccc21`, for which the AC90 was 102 µM.

For the compound `Cn1c(NC(=O)c2ccccc2)nc2c3cnccc3ccc21`, the AC90 is 14.4 µM.

In the case of `Cn1c(NC(=O)c2ccccc2)nc2cc(C#N)ccc21`, the AC90 was > 100 µM (inactive).

Regarding `O=C(Nc1nc2ccccc2n1C1CCCCC1)c1ccccc1`, the AC90 was > 100 µM (inactive).

With `Cn1c(NC(=O)c2ccc(N3CCCCC3)cc2)nc2ccccc21`, the AC90 is > 100 µM (inactive).

For `Cn1c(NC(=O)c2ccccc2)nc2c3ncccc3ccc21`, the AC90 is 10.6 µM.

Take `Cn1c(N)nc2ccccc21`: the AC90 was > 50 µM (inactive).

With `Cn1c(NC(=O)c2cccnc2)nc2ccccc21`, the AC90 is 99.8 µM.

For `Cn1c(NC(=O)c2ccccc2)nc2c3nccnc3ccc21`, the AC90 is 63.9 µM.

As for `Cn1c(NC(=O)c2ccccc2)nc2c3ccncc3ccc21`, the AC90 was 18.4 µM.

For the compound `Cn1c(NC(=O)c2ccccc2)nc2c(Cl)cccc21`, the AC90 was > 100 µM (inactive).

Take `CN1CCN(c2ccc(C(=O)Nc3nc4ccccc4n3C)cc2)CC1`: the AC90 is > 100 µM (inactive).

Consider `Cn1c(N2CCN(C(=O)c3ccccc3)CC2)nc2ccccc21`, for which the AC90 is > 100 µM (inactive).

With `Cn1c(NC(=O)c2ccccc2)nc2c(C#N)cccc21`, the AC90 was > 100 µM (inactive).

As for `CO[C@H]1/C=C/O[C@@]2(C)Oc3c(C)c(O)c4c(O)c(c(C=NN5CCN(C)CC5)c(O)c4c3C2=O)NC(=O)/C(C)=C\C=C\[C@H](C)[C@H](O)[C@@H](C)[C@@H](O)[C@@H](C)[C@H](OC(C)=O)[C@@H]1C`, the AC90 is 6.43 µM.

On to `Cc1ccccc1C(=O)Nc1nc2ccccc2n1C`, for which the AC90 was > 100 µM (inactive).
